Earlier results, collected in article PMC8513935.
Each block holds one compound with its values, some of them ahead of it.

Columns and labels:
[1] = experimental, compiled by the authors from the literature (the ESI cites the sources)
[2] = derived by the authors as gas->solvent minus gas->water (a hypothetical dry solvent; the ESI), not a two-phase measurement
[3] = log P octanol/water from commercial databases, averaged (the ESI); conditions: Octanol (wet), 25 C

Compound: CCC(C)=O
log K of transfer, gas to solvent ([1]; 1,2-Dichloroethane, 25 C): 3.64 log10 K
log K of transfer, gas to solvent ([1]; 2-Methylpropan-1-ol, 25 C): 2.99 log10 K
log K of transfer, gas to solvent ([1]; 2-Methylpropan-2-ol, 25 C): 3.11 log10 K
log K of transfer, gas to solvent ([1]; 3-Methylbutan-1-ol, 25 C): 3.01 log10 K
log K of transfer, gas to solvent ([1]; Acetonitrile, 25 C): 3.48 log10 K
log K of transfer, gas to solvent ([1]; Benzene, 25 C): 3.27 log10 K
log K of transfer, gas to solvent ([1]; Butan-1-ol, 25 C): 3.02 log10 K
log K of transfer, gas to solvent ([1]; Butan-2-ol, 25 C): 3.05 log10 K
log K of transfer, gas to solvent ([1]; Butanone, 25 C): 3.36 log10 K
log K of transfer, gas to solvent ([1]; Butyronitrile, 25 C): 3.38 log10 K
log K of transfer, gas to solvent ([1]; CCl4, 25 C): 2.99 log10 K
log K of transfer, gas to solvent ([1]; Chlorobenzene, 25 C): 3.29 log10 K
log K of transfer, gas to solvent ([1]; Chloroform, 25 C): 3.87 log10 K
log K of transfer, gas to solvent ([1]; Cyclohexane, 25 C): 2.47 log10 K
log K of transfer, gas to solvent ([1]; Cyclohexanone, 25 C): 3.29 log10 K
log K of transfer, gas to solvent ([1]; Di-n-butyl ether, 25 C): 2.73 log10 K
log K of transfer, gas to solvent ([1]; Dichloromethane, 25 C): 3.86 log10 K
log K of transfer, gas to solvent ([1]; Diethyl Ether, 25 C): 3.03 log10 K
log K of transfer, gas to solvent ([1]; Ethanol, 25 C): 3.16 log10 K
log K of transfer, gas to solvent ([1]; Hexadecane, 25 C): 2.29 log10 K
log K of transfer, gas to solvent ([1]; Hexan-1-ol, 25 C): 2.84 log10 K
log K of transfer, gas to solvent ([1]; Hexane, 25 C): 2.49 log10 K
log K of transfer, gas to solvent ([1]; Methanol, 25 C): 3.34 log10 K
log K of transfer, gas to solvent ([1]; Octan-1-ol, 25 C): 2.77 log10 K
log K of transfer, gas to solvent ([1]; Pentan-1-ol, 25 C): 2.85 log10 K
log K of transfer, gas to solvent ([1]; Perfluoroalkane, 25 C): 1.76 log10 K
log K of transfer, gas to solvent ([1]; Propan-1-ol, 25 C): 3.07 log10 K
log K of transfer, gas to solvent ([1]; Propan-2-ol, 25 C): 2.99 log10 K
log K of transfer, gas to solvent ([1]; Propanone, 25 C): 3.42 log10 K
log K of transfer, gas to solvent ([1]; Tetrahydrofuran, 25 C): 3.33 log10 K
log K of transfer, gas to solvent ([1]; Toluene, 25 C): 3.13 log10 K
log K of transfer, gas to solvent ([1]; Water, 25 C): 2.72 log10 K
log K of transfer, water to solvent ([2]; 1,2-Dichloroethane, 25 C): 0.92 log10 K
log K of transfer, water to solvent ([2]; 2-Methylpropan-1-ol, 25 C): 0.27 log10 K
log K of transfer, water to solvent ([2]; 2-Methylpropan-2-ol, 25 C): 0.39 log10 K
log K of transfer, water to solvent ([2]; 3-Methylbutan-1-ol, 25 C): 0.29 log10 K
log K of transfer, water to solvent ([2]; Acetone, 25 C): 0.7 log10 K
log K of transfer, water to solvent ([2]; Acetonitrile, 25 C): 0.76 log10 K
log K of transfer, water to solvent ([2]; Benzene, 25 C): 0.55 log10 K
log K of transfer, water to solvent ([2]; Butan-1-ol, 25 C): 0.3 log10 K
log K of transfer, water to solvent ([2]; Butan-2-ol, 25 C): 0.33 log10 K
log K of transfer, water to solvent ([2]; Butanone, 25 C): 0.64 log10 K
log K of transfer, water to solvent ([2]; Butyronitrile, 25 C): 0.66 log10 K
log K of transfer, water to solvent ([2]; CCl4, 25 C): 0.27 log10 K
log K of transfer, water to solvent ([2]; Chlorobenzene, 25 C): 0.57 log10 K
log K of transfer, water to solvent ([2]; Chloroform, 25 C): 1.15 log10 K
log K of transfer, water to solvent ([2]; Cyclohexane, 25 C): -0.246 log10 K
log K of transfer, water to solvent ([2]; Cyclohexanone, 25 C): 0.574 log10 K
log K of transfer, water to solvent ([2]; Di-n-butyl ether, 25 C): 0.00999 log10 K
log K of transfer, water to solvent ([2]; Dichloromethane, 25 C): 1.14 log10 K
log K of transfer, water to solvent ([2]; Diethyl Ether, 25 C): 0.31 log10 K
log K of transfer, water to solvent ([2]; Ethanol, 25 C): 0.44 log10 K
log K of transfer, water to solvent ([2]; Hexadecane, 25 C): -0.433 log10 K
log K of transfer, water to solvent ([2]; Hexan-1-ol, 25 C): 0.122 log10 K
log K of transfer, water to solvent ([2]; Hexane, 25 C): -0.23 log10 K
log K of transfer, water to solvent ([2]; Methanol, 25 C): 0.62 log10 K
log K of transfer, water to solvent ([2]; Octan-1-ol(dry), 25 C): 0.05 log10 K
log K of transfer, water to solvent ([2]; Pentan-1-ol, 25 C): 0.13 log10 K
log K of transfer, water to solvent ([2]; Perfluoroalkane, 25 C): -0.957 log10 K
log K of transfer, water to solvent ([2]; Propan-1-ol, 25 C): 0.35 log10 K
log K of transfer, water to solvent ([2]; Propan-2-ol, 25 C): 0.27 log10 K
log K of transfer, water to solvent ([2]; Tetrahydrofuran, 25 C): 0.61 log10 K
log K of transfer, water to solvent ([2]; Toluene, 25 C): 0.41 log10 K
log K of transfer, water to solvent [3]: 0.29 log10 K

log K of transfer, gas to solvent ([1]; 2-Methylpropan-2-ol, 25 C): 4.27 log10 K
log K of transfer, gas to solvent ([1]; Butan-1-ol, 25 C): 4.7 log10 K
log K of transfer, gas to solvent ([1]; Chloroform, 25 C): 5.39 log10 K
log K of transfer, gas to solvent ([1]; Cyclohexane, 25 C): 3.77 log10 K
log K of transfer, gas to solvent ([1]; Hexadecane, 25 C): 3.63 log10 K
log K of transfer, gas to solvent ([1]; Propan-1-ol, 25 C): 4.65 log10 K
log K of transfer, gas to solvent ([1]; Water, 25 C): 3.5 log10 K
log K of transfer, water to solvent ([2]; 2-Methylpropan-2-ol, 25 C): 0.77 log10 K
log K of transfer, water to solvent ([2]; Butan-1-ol, 25 C): 1.2 log10 K
log K of transfer, water to solvent ([2]; Chloroform, 25 C): 1.89 log10 K
log K of transfer, water to solvent ([2]; Cyclohexane, 25 C): 0.27 log10 K
log K of transfer, water to solvent ([2]; Hexadecane, 25 C): 0.131 log10 K
log K of transfer, water to solvent ([2]; Propan-1-ol, 25 C): 1.15 log10 K
log K of transfer, water to solvent [3]: 1.2 log10 K
Compound: Cc1cccnc1

log K of transfer, gas to solvent ([1]; 1,2-Dichloroethane, 25 C): 0.36 log10 K
log K of transfer, gas to solvent ([1]; 2-Methylpropan-1-ol, 25 C): 0.34 log10 K
log K of transfer, gas to solvent ([1]; 2-Methylpropan-2-ol, 25 C): 0.36 log10 K
log K of transfer, gas to solvent ([1]; Butan-1-ol, 25 C): 0.34 log10 K
log K of transfer, gas to solvent ([1]; Butan-2-ol, 25 C): 0.32 log10 K
log K of transfer, gas to solvent ([1]; CCl4, 25 C): 0.57 log10 K
log K of transfer, gas to solvent ([1]; Chlorobenzene, 25 C): 0.45 log10 K
log K of transfer, gas to solvent ([1]; Cyclohexanone, 25 C): 0.401 log10 K
log K of transfer, gas to solvent ([1]; Ethanol, 25 C): 0.41 log10 K
log K of transfer, gas to solvent ([1]; Heptan-1-ol, 25 C): 0.312 log10 K
log K of transfer, gas to solvent ([1]; Hexadecane, 25 C): 0.289 log10 K
log K of transfer, gas to solvent ([1]; Hexan-1-ol, 25 C): 0.318 log10 K
log K of transfer, gas to solvent ([1]; Hexane, 25 C): 0.471 log10 K
log K of transfer, gas to solvent ([1]; Methanol, 25 C): 0.41 log10 K
log K of transfer, gas to solvent ([1]; Octan-1-ol, 25 C): 0.28 log10 K
log K of transfer, gas to solvent ([1]; Pentan-1-ol, 25 C): 0.35 log10 K
log K of transfer, gas to solvent ([1]; Propan-1-ol, 25 C): 0.38 log10 K
log K of transfer, gas to solvent ([1]; Propan-2-ol, 25 C): 0.33 log10 K
log K of transfer, gas to solvent ([1]; Propanone, 25 C): 0.56 log10 K
log K of transfer, gas to solvent ([1]; Tetrahydrofuran, 25 C): 0.6 log10 K
log K of transfer, gas to solvent ([1]; Water, 25 C): -0.94 log10 K
log K of transfer, water to solvent ([2]; 1,2-Dichloroethane, 25 C): 1.3 log10 K
log K of transfer, water to solvent ([2]; 2-Methylpropan-1-ol, 25 C): 1.28 log10 K
log K of transfer, water to solvent ([2]; 2-Methylpropan-2-ol, 25 C): 1.3 log10 K
log K of transfer, water to solvent ([2]; Acetone, 25 C): 1.5 log10 K
log K of transfer, water to solvent ([2]; Butan-1-ol, 25 C): 1.28 log10 K
log K of transfer, water to solvent ([2]; Butan-2-ol, 25 C): 1.26 log10 K
log K of transfer, water to solvent ([2]; CCl4, 25 C): 1.51 log10 K
log K of transfer, water to solvent ([2]; Chlorobenzene, 25 C): 1.39 log10 K
log K of transfer, water to solvent ([2]; Cyclohexanone, 25 C): 1.34 log10 K
log K of transfer, water to solvent ([2]; Ethanol, 25 C): 1.35 log10 K
log K of transfer, water to solvent ([2]; Heptan-1-ol, 25 C): 1.25 log10 K
log K of transfer, water to solvent ([2]; Hexadecane, 25 C): 1.23 log10 K
log K of transfer, water to solvent ([2]; Hexan-1-ol, 25 C): 1.26 log10 K
log K of transfer, water to solvent ([2]; Hexane, 25 C): 1.41 log10 K
log K of transfer, water to solvent ([2]; Methanol, 25 C): 1.35 log10 K
log K of transfer, water to solvent ([2]; Octan-1-ol(dry), 25 C): 1.22 log10 K
log K of transfer, water to solvent ([2]; Pentan-1-ol, 25 C): 1.29 log10 K
log K of transfer, water to solvent ([2]; Propan-1-ol, 25 C): 1.32 log10 K
log K of transfer, water to solvent ([2]; Propan-2-ol, 25 C): 1.27 log10 K
log K of transfer, water to solvent ([2]; Tetrahydrofuran, 25 C): 1.54 log10 K
log K of transfer, water to solvent [3]: 1.13 log10 K
Compound: C=C

log K of transfer, gas to solvent ([1]; Hexadecane, 25 C): 4.08 log10 K
log K of transfer, gas to solvent ([1]; Methanol, 25 C): 3.8 log10 K
log K of transfer, gas to solvent ([1]; Octan-1-ol, 25 C): 3.98 log10 K
log K of transfer, gas to solvent ([1]; Propan-2-ol, 25 C): 3.79 log10 K
log K of transfer, gas to solvent ([1]; Propanone, 25 C): 4.32 log10 K
log K of transfer, gas to solvent ([1]; Tetrahydrofuran, 25 C): 4.77 log10 K
log K of transfer, gas to solvent ([1]; Water, 25 C): 0.22 log10 K
log K of transfer, water to solvent ([2]; Acetone, 25 C): 4.1 log10 K
log K of transfer, water to solvent ([2]; Hexadecane, 25 C): 3.86 log10 K
log K of transfer, water to solvent ([2]; Methanol, 25 C): 3.58 log10 K
log K of transfer, water to solvent ([2]; Octan-1-ol(dry), 25 C): 3.76 log10 K
log K of transfer, water to solvent ([2]; Propan-2-ol, 25 C): 3.57 log10 K
log K of transfer, water to solvent ([2]; Tetrahydrofuran, 25 C): 4.55 log10 K
log K of transfer, water to solvent [3]: 3.66 log10 K
Compound: CC(C)c1ccccc1
